For one data set, the system named is C6 rat glioma cell line. In words: MTT cell viability assay, C6. The class given is cell-based. The settings on record: for cell viability / anti-proliferative effect (MTT), in words / IC50: C6, 24 hours; for IC50: Rattus norvegicus, individual drug, mean ± SD, no unit in table, test concentrations given in μM, read-out: Inhibitory Concentration at 50% (IC50) C6 Cells. Here is the method: Cell lines and culture conditions. A human glioma cell line, U87MG, a rat glioma cell line, C6, and normal HEK293T (Human Embryonic Kidney) cells were obtained from National Centre for Cell Science (NCCS), Pune, India. The cells were sub-cultured in Dulbecco's Modified Eagle's Medium (DMEM) supplemented with 10% FBS at 5% CO2 and 37° C. At 85% confluence, the cells were harvested using 0.25% trypsin and seeded in 25 cm^2 flasks, 96 well, and 6-well plates, according to the experiment being performed. The cells were allowed to attach 70% to the surface prior to treatment. A stock solution of all the drugs (10 mg/ml) was made in a vehicle and diluted to the required concentrations. Suspensions were aspirated 10 times before treatment. Cells treated with vehicle control were used as a control.
Cell viability assay. U87MG and C6 cells (5×10^3 cells/ml) were seeded in 96-well plates and exposed to different individual-drug treated groups with varying concentrations (0, 10, 40, 80, 120, and 160 μM) for a period of 24 hours, whereas HEK293T cells (5×10^3 cells/ml) were seeded at the inhibitory concentration (IC) at 50% of drugs, either alone or in combination. The individual-treated groups include Group I: untreated control glioma cells; Group II: TMZ-treated glioma cells; Group III: MET-treated glioma cells; and Group IV: EGCG-treated glioma cells.
After a 24 hour treatment period, the cells were allowed to react with MTT for 4 hours in dark at 37° C. At the end of the incubation period, the dark purple formazan crystals formed were solubilized with DMSO and the absorbance was measured spectrophotometrically at 595 nm (Molecular Devices Spectra-Max M5, USA). The experiments were repeated at least three times. To determine the cell viability, the percentage of viability was calculated as follows:
% viability=[(Optical density {OD} of treated cells−OD of Blank)/(OD of control−OD of blank)]×100.
Calculation of IC50 value. The IC50 of a drug was determined using y=m(x)+c equation (where: ‘y’ & ‘x’ are the respective coordinates of y & x-axis, ‘m’ is the slope and ‘c’ is the constant) derived from the trendlines of each scattered plots MMT assay. […] The IC50 and IC25 were also calculated for the dual combinations. The IC50 for the triple combination was calculated by keeping the IC25 of the dual-combination constant, and the third drug was used in varying concentrations (0, 10, 40, 80, 120, and 160 μM) (Table 1).
Combination index of drugs. According to the Chou-Talalay method, The statistical Combination Index (CI) of the drugs was performed according to the Chou-Talay method (Ma et al, Stem Cell Reports, 2017 9(6):1948-1960) to determine whether various drug combinations were synergistic, additive, or antagonistic, as shown in Table 1. This was performed for Groups V-IX using the following formula:
Combination index (CI) of Drugs 1 & 2=(IC50 of drug-1 in combination/IC50 of drug-1 individually)+(IC50 of drug-2 in combination/IC50 of drug-2 individually).
(In general: Tetrazolium assays rely on reduction of a dye to a coloured formazan, in cell work by metabolically active cells.)

The next data set has as its system U87MG human glioma cells. The experiment in a line: AO/EtBr dual staining for apoptosis, U87MG. The conditions noted are these: respective IC50 concentrations. The class given is cell-based. An excerpt:
(§1) AO/EtBr are fluorescent nuclear stains, which distinguish between live and dead cells based on their membrane integrity. AO intercalates in the DNA of live cells imparting green shade to the nucleus as an indica-tor of viability. In the case of the dead cell, EtBr intercalates along with AO, resulting in an orange appearance, with an increased orange appearance corresponding to a concomitant increase in the number of dead cells and vice versa.
(§2) After the treatment period, monolayer cells were stained with AO/EtBr stain (1 mg/ml) and were visualized immediately under a fluorescence microscope (Axiovert, Carl Zeiss) at 20× magnification.

The subject of the next data set is C6 glioma cells. The experiment in a line: AO/EtBr dual staining for apoptosis, C6. It is filed as cell-based, rat. The conditions noted are these: respective IC50 concentrations.
From the text: as §1, §2

In data set [1] the test system is intracellular ROS in U87MG cells. The experiment in a line: ROS activity by DCF-DA, U87MG. The class given is cell-based, human. The conditions noted are these: IC50 concentrations, vs control. Here is the method: (§3) Determination of ROS activity by DCF-DA. U87MG and C6 cells were seeded at 5×10^3 cells/well in 96 well plates. […] After the treatment period, monolayer cells were stained with DCF-DA stain, and the absorbance was read at 530 nm spectrophotometrically (Molecular Devices Spectra-Max M5, USA). This method is commonly used in ROS investigations and is based on the application of H2DCFDA (acetylated form of DCF), which is consecutively deacetylated inside the cells by intracellular esterase.

The test system of data set [2] is intracellular ROS in C6 cells. The experiment in a line: ROS activity by DCF-DA, C6. The class given is cell-based, rat. The conditions noted are these: IC50 concentrations, vs control. Here is the method: as §3
The test system of data set [3] is human breast cancer (MDA-MB-453) cells. In words: MTT cell viability assay, MDA-MB-453. The class given is cell-based. The settings on record: 24 hours. The protocol:
Cell lines and culture conditions: A human breast cancer cell line MDA-MB-453 and human bone cancer cell line SaoS2 were obtained from National Centre for Cell Science (NCCS), Pune, India. The MDA-MB-453 cells were sub-cultured in Dulbecco's Modified Eagle's Medium (DMEM) supplemented with 10% FBS at 5% CO2 and 37° C. The SaoS2 cells were sub-cultured in McCoy's 5A media supplemented with 10% FBS at 5% CO2 and 37° C. […] The cells were allowed to attach 70% to the surface prior to treatment. […] Suspensions were aspirated 10 times before treatment. Cells treated with vehicle control were used as a control. Cell viability assay: MDA-MB-453 and SaoS2 cells (5×10^3 cells/ml) were seeded in 96-well plates and exposed to different individual-drug treated groups with varying concentrations (0, 20, 40, 60, 80, 100, 120, 140, 160, 180 and 200 μM) for a period of 24 hours.

The test system of data set [4] is HEK293T (Human Embryonic Kidney) cells. The experiment in a line: Trypan blue exclusion cytotoxicity on normal cell line. It is filed as cell-based. The conditions noted are these: treated at IC50 values determined in U87MG and C6, 24 hours. The protocol:
Cytotoxicity on a normal cell line.
Furthermore, to check for the cytotoxicity of the drugs, a trypan blue dye exclusion assay was performed on a normal cell line, HEK293T, using the IC50 values of each drug, individually and in combination, as determined in U87MG and C6 cells and shown in Table 2.

A further data set relates to TBARS in C6 cells. In words: TBARS (MDA) assay, C6. It is filed as cell-based, rat. The conditions noted are these: vs control. The protocol: Determination of TBARS levels. TBARS (thiobarbituric acid reactive substances), by-products of lipid peroxidation, were analyzed by measuring the concentration of malondialdehyde (MDA). The levels of MDA were measured in cell lysates using TBARS assay (Catalog No. 10009055, Cayman Chemical, Ann Arbor, USA). The concentration of lipid peroxides was calculated as an MDA equivalent using the extinction coefficient for the MDA-TBA complex of 1.56×10^5 M−1 cm^−1 at 532 nm.

Turning to `CN(C)C(=N)N=C(N)N.Cl` [MET, 3-(diaminomethylidene)-1,1-dimethylguanidine; hydrochloride], the “cell viability / anti-proliferative effect (MTT), in words” value with C6 rat glioma cell line is recorded as “reduction in cell viability in a dose-dependent fashion”. Also, the IC50 in the data set on C6 rat glioma cell line worked out at 77 ± 1.42 µM. Further, the “IC25 C6” value in the data set with C6 rat glioma cell line (as used in the triple combination for CI) was determined as 38.40 µM. Further, the “apoptotic cell death (AO/EtBr)” value in the data set with U87MG human glioma cells (hydrochloride) is given as “did not produce any significant apoptotic activity”; in the data set with U87MG human glioma cells (listed as M, hydrochloride), “no apoptosis but loss of cell membrane integrity”; with C6 glioma cells (hydrochloride) it was “did not produce any significant apoptotic activity”; in the data set on C6 glioma cells (listed as M, hydrochloride), “no apoptosis but loss of cell membrane integrity”. Also, the “intracellular ROS levels (DCF-DA fluorescence intensity)” value in data set [1] and in data set [2] was “did not show much effect on ROS levels” each time. Also, in data set [3], the “cell viability (MTT), in words” value is “reduction in cell viability in a dose-dependent fashion”.
Turning to `O=C(O[C@@H]1Cc2c(O)cc(O)cc2O[C@@H]1c1cc(O)c(O)c(O)c1)c1cc(O)c(O)c(O)c1` [EGCG, [(2R,3R)-5,7-dihydroxy-2-(3,4,5-trihydroxyphenyl)-3,4-dihydro-2H-chromen-3-yl] 3,4,5-trihydroxybenzoate], the “cell viability / anti-proliferative effect (MTT), in words” value is on record as “reduction in cell viability in a dose-dependent fashion” in the data set on C6 rat glioma cell line and “did not result in significant inhibitory effects” in the data set with C6 rat glioma cell line (listed as ECGC). Moreover, in the data set on C6 rat glioma cell line, the IC50 amounted to 96 ± 1.76 µM. Also, the “toxicity in normal HEK293T cells” value in data set [4] is listed as “significant reduction in toxicity”. Also, the “apoptotic cell death (AO/EtBr)” value with U87MG human glioma cells is given as “did not produce any significant apoptotic activity”; with U87MG human glioma cells (listed as E), “no apoptosis”; in the data set on C6 glioma cells it was “did not produce any significant apoptotic activity”; in the data set on C6 glioma cells (listed as E), “no apoptosis”. The “intracellular ROS levels (DCF-DA fluorescence intensity)” value in data set [1] and in data set [2] was “increased significantly” each time. The TBARS levels entry in the data set with TBARS in C6 cells is recorded as “significantly elevated”. Also, in data set [3], the “cell viability (MTT), in words” value is on record as “reduction in cell viability in a dose-dependent fashion”.

These data come from patent publication US20250275938A1, “COMPOSITIONS AND METHODS FOR TREATMENT OF CANCER” (SCIROSBIO (FZC), priority 2022, published 2025).
